# Experimental data taken from PubChem BioAssay (NCI).
#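 Cells were grown in 96-well plates and exposed to each compound for 48 hours at five concentrations; endpoints were interpolated linearly between bracketing concentrations, or set to the highest concentration if not reached. GI50 is the concentration that inhibits growth by half. The concentration for full growth arrest is given as TGI.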
# How the values were obtained:
# Test in all cases: NCI tumour cell line growth inhibition, 48 h
# HCT-15 colon = system: HCT-15 colon
# EKVX NSCLC = system: EKVX NSCLC
# KM12 colon = system: KM12 colon
# TK-10 renal = system: TK-10 renal
# SF-268 CNS = system: SF-268 CNS
# BT-549 breast = system: BT-549 breast
# SF-539 CNS = system: SF-539 CNS
# MDA-MB-435 = system: MDA-MB-435
# PC-3 prostate = system: PC-3 prostate
# MALME-3M melanoma = system: MALME-3M melanoma
smiles,measurement,setting,value
Clc1ccc(C2CC(c3cccc(Nc4ccncc4)c3)=NN2c2cc(Cl)cc(Cl)c2)cc1 (stereo not given),GI50,HCT-15 colon,1770 nM
same,TGI,HCT-15 colon,3450 nM
same,GI50,EKVX NSCLC,1600 nM
same,TGI,EKVX NSCLC,3120 nM
same,GI50,KM12 colon,1790 nM
same,TGI,KM12 colon,3380 nM
same,GI50,TK-10 renal,1930 nM
same,TGI,TK-10 renal,3700 nM
same,GI50,SF-268 CNS,1780 nM
same,TGI,SF-268 CNS,3590 nM
same,GI50,BT-549 breast,1850 nM
same,TGI,BT-549 breast,3570 nM
same,GI50,SF-539 CNS,1690 nM
same,TGI,SF-539 CNS,3200 nM
same,GI50,MDA-MB-435,1710 nM
same,TGI,MDA-MB-435,3160 nM
same,GI50,PC-3 prostate,1690 nM
same,TGI,PC-3 prostate,3290 nM
same,GI50,MALME-3M melanoma,1770 nM
same,TGI,MALME-3M melanoma,3680 nM
